Experimental data taken from PMC12688159, “Chemosensory protein 3 is a brain host factor for the induction of enhanced-locomotory activity in the BmNPV-silkworm infection model” (PLOS Pathogens, 2025).

Target: T1, BmCSP3 (chemosensory protein 3) (Bombyx mori, UniProt Q3LBA2)
T1 construct: residues 19–109 of UniProt entry Q3LBA2
T1 sequence (Q3LBA2 19-127): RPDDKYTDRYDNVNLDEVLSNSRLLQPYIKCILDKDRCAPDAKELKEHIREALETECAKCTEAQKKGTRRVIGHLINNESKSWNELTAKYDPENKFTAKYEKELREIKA
Test: 1-NPN fluorescence displacement binding assay with purified protein
Conditions: not given

| Compound | Ki |
| --- | --- |
| O=C(O)Cc1cc(O)ccc1O [Homogentisic acid] | 2500 nM |
| NCCc1c[nH]c2ccc(O)cc12 [Serotonin] | 1800 nM |
| NCCc1c[nH]c2ccccc12 [Tryptamine] | 11 nM |

Same assay, conditions: read-out: Ki

| Ki | Compound |
| --- | --- |
| 290 nM | CC/C=C\C/C=C\C=C\[C@@H](O)CCCCCCCC(=O)O [9(S)-HOTrE, (10E,12Z,15Z)-9-hydroxyoctadeca-10,12,15-trienoic acid] |
| 2800 nM | NC(=O)CC[C@H](N)C(=O)O [L-glutamine] |
| 72 nM | Nc1ccccc1C(=O)C[C@H](N)C(=O)O [L-kynurenine] |
| 2130 nM | CC(=O)NCCc1c[nH]c2ccc(O)cc12 [N-acetylserotonin] |

Target: T1, BmCSP3 (chemosensory protein 3)
Test: direct fluorescence titration of the probe with purified protein, single-site saturation fit
Assay type: binding
Conditions: not given

| Compound | Kd |
| --- | --- |
| c1ccc(Nc2cccc3ccccc23)cc1 [1-NPN, N-Phenyl-1-naphthylamine] | 5800 nM |

Target: T1, BmCSP3 (chemosensory protein 3)
Test: biochemical
Design: 1-NPN fluorescence displacement from purified BmCSP3; EC50int interpolated, Ki by Cheng-Prusoff
Conditions: EC50int, 1-NPN displacement; read-out: EC50,int ± SE (μΜ)
Protocol: (§1) The dissociation constant (Kd) of the fluorescent probe 1-NPN (N-Phenyl-1-naphthylamine) was determined in solutions containing 4 μΜ BmCSP3 in 20 mM Tris-HCl pH 8.0, 100 mM NaCl by addition of 0 το 20 μM 1-NPN. To determine the ligands’ Ki, 1-NPN displacement was measured in solutions containing 4 μΜ BmCSP3, 10 μΜ 1-NPN and ligand concentrations ranged from 0-20 μΜ and 0–32 μΜ, for the tested neurotranmiters and lipids, respectively. Control samples containing the ligand and 1-NPN, but lacking protein, were run in parallel to determine background fluorescence, which was subtracted from the experimental data. All experiments were performed in technical triplicate. Given that the bottom values never reaches zero and varied among the different experiments, the ligand concentration that reduced the initial fluorescence by 50% (EC50int) was estimated from the displacement binding curves by interpolation, using the built-in interpolation function of GraphPad Prism.

| EC50 | Compound |
| --- | --- |
| > 20000 nM | NCCCC(N)C(=O)O (racemic) [DL-Ornithine] |
| 790 ± 100 nM | CC/C=C\C/C=C\C=C\[C@@H](O)CCCCCCCC(=O)O [9(S)-HOTrE, (10E,12Z,15Z)-9-hydroxyoctadeca-10,12,15-trienoic acid] |
| > 20000 nM | NCC(=O)O [Glycine] |
| 7780 ± 1480 nM | NC(=O)CC[C@H](N)C(=O)O [L-glutamine] |
| 200 ± 20 nM | Nc1ccccc1C(=O)C[C@H](N)C(=O)O [L-kynurenine] |
| 5820 ± 1130 nM | CC(=O)NCCc1c[nH]c2ccc(O)cc12 [N-acetylserotonin] |

| Compound | EC50 |
| --- | --- |
| O=C(O)Cc1cc(O)ccc1O [Homogentisic acid] | 6760 ± 1580 nM |
| NCCCC[C@H](N)C(=O)O [L-lysine] | > 20000 nM |
| NCCc1c[nH]c2ccc(O)cc12 [Serotonin] | 4810 ± 1170 nM |
| NCCc1c[nH]c2ccccc12 [Tryptamine] | 30 ± 10 nM |

Target: T1, BmCSP3 (chemosensory protein 3)
Test: biochemical
Design: 1-NPN fluorescence displacement binding with purified BmCSP3; Ki by Cheng-Prusoff from interpolated EC50
Conditions: 4 uM BmCSP3, 10 uM 1-NPN, pH 8.0, 25 °C; read-out: Ki (μΜ)
Protocol: as §1, with “triplicate. The determination of dissociation constants and the visualization of the binding curves was carried out using the non-linear regression analysis program GraphPad Prism 8 (www.graphpad.com). The Kd of 1-NPN for BmCSP3 was determined to be 5.8 μΜ by fitting the fluorescence data to a single-binding site saturation model described by the equation” for “triplicate.”, “Prism. Subsequently, the ligand’s dissociation constant (Ki) was determined using the Cheng-Prusoff equation: […]” for “Prism.”

| Ki | Compound |
| --- | --- |
| > 20000 nM | NCCCC(N)C(=O)O (racemic) [DL-Ornithine] |
| > 20000 nM | NCC(=O)O [Glycine] |

| Compound | Ki |
| --- | --- |
| NCCCC[C@H](N)C(=O)O [L-lysine] | > 14000 nM |
